Literature values, collected in US20200216906A1, “METHODS AND COMPOSITIONS RELATING TO THE DIAGNOSIS AND TREATMENT OF CANCER” (PRESIDENT AND FELLOWS OF HARVARD COLLEGE, priority 2015, published 2020).
Structures can show the parent of a compound that is named as a salt.

Biological target: T1, ABCG2 (Homo sapiens, UniProt Q9UNQ0)
T1 sequence (Q9UNQ0 1-655): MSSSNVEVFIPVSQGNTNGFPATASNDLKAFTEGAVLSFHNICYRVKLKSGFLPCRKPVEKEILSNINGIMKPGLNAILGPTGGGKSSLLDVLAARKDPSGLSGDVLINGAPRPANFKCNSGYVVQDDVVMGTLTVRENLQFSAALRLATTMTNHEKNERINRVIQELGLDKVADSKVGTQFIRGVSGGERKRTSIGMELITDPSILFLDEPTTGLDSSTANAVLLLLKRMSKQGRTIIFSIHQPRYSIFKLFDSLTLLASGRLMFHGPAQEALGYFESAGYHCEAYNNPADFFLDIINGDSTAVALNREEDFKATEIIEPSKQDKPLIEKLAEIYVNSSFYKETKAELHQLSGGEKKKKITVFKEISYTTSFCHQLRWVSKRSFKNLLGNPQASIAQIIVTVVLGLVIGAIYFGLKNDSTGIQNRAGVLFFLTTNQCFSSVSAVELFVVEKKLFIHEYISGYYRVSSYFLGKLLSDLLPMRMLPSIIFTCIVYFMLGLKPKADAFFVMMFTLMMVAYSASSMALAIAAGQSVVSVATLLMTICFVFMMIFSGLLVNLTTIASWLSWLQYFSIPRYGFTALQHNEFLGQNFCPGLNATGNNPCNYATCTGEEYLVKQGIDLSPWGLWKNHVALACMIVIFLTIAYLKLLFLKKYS
Details: Cusatis and Sparreboom, 2008; cited from earlier work

SMILES: Nc1ccn([C@@H]2O[C@H](CO)[C@@H](O)C2(F)F)c(=O)n1 [Gemcitabine, Gemcitabine hydrochloride]
- Substrate of ABCG2: substrates of ABCG2
